Experimental data from patent EP3543705A1, “MITOCHONDRIAL PH PROBE” (priority 2018, dated 2019).

Legend:
[1] = test system: mitochondria of A2780 ovarian cancer cell line; assay: fluorescein/Cy5 fluorescence ratio in stained live cells treated with nigericin or FCCP; assay type: cell-based; conditions: 300 nM FCCP or 2uM nigericin versus DMSO vehicle control; cells stained with 2 µM 5FA-PIP-Cy5-DA
Protocol: A2780 ovarian cancer cells were cultured in 24-well microscopy glass bottom plates in a CO2 incubator. […] Separate fluorescent images in green (488/520 nm) and deep red (640/660 nm) spectral channels were acquired on Visitron W1 spinning disk confocal microscope. The florescence ratio was quantified using a specifically designed batch ImageJ plugin. This software thresholds the pH-independent Cy5 channel, quantifies the fluorescence intensity in the thresholded image areas, and uses the thresholded mask to quantify the intensity of pH-dependent 5Fluo channel. The intensity ratio is then used to estimate the mitochondrial pH of the cells. […] Typical pH variations in mitochondria of A2780 ovarian cancer cell line are represented at Figure 4. Typical staining procedure is described further. […] All images are maximum intensity projection. […] The mitochondrial staining on Figure 4A is very homogeneous. […] The mitochondrial staining on Figure 4B is very heterogeneous, unlike the Figure 4A. Figure 4C represents the overlap image of Figure 4A and Figure 4B. Bluish hint Figure 4C corresponds to relatively high mitochondrial pH, reddish to relatively low mitochondrial pH. Figure 4D represents bright field image. […] Confocal images were acquired for control, FCCP- and nigericin-treated cell samples, and the ratio between fluorescein and Cy5 channel fluorescence was quantified.

[2] = test system: mitochondria of A2780 ovarian cancer cell line; assay: probe calibration in defined-pH buffers: collapse of the mitochondrial pH gradient; assay type: cell-based; conditions: stained cells in high K+ buffers, pH range 6.73 to 8.36
Protocol: A2780 ovarian cancer cells were cultured in 24-well microscopy glass bottom plates in a CO2 incubator. Prior to imaging, the cells were stained with 2uM 5FA-PIP-Cy5-DA, and/or TMRM (20nM) for 30 min in bicarbonate-free DMEM medium to avoid extracellular pH fluctuations, then washed with the same medium (without 5FA-PIP-Cy5-DA) and imaged with confocal spinning disk microscopy at 60x magnification When TMRM was used, this dye was also present in the bicarbonate-free DMEM medium during the imaging of the cells. Separate fluorescent images in green (488/520 nm) and deep red (640/660 nm) spectral channels were acquired on Visitron W1 spinning disk confocal microscope. The florescence ratio was quantified using a specifically designed batch ImageJ plugin. This software thresholds the pH-independent Cy5 channel, quantifies the fluorescence intensity in the thresholded image areas, and uses the thresholded mask to quantify the intensity of pH-dependent 5Fluo channel. The intensity ratio is then used to estimate the mitochondrial pH of the cells. Calibration of the intensity ratio was achieved through the staining of A2780 cells in a series of PBS - 5% BSA buffers with defined pH, containing 20mM HEPES and 5uM FCCP, to equilibrate the mitochondrial pH with the pH of the buffer.
The stained cells were treated with FCCP in high K^+ buffers in a pH range of 6.73 to 8.36.

A2780 cells [3] = assay: mitochondrial pH of drug-treated cells, measured with 5FA-PIP-Cy5-DA; assay type: cell-based
Source text: The calibration curve for the ratio of 5Fluoro/Cy5 fluorescence was obtained using FCCP and a PBS-5% BSA buffer with A2780 cells in a manner analogous to the method described in Example 2 (see Figure 12). The quantifying of mitochondrial pH in the presence of the drug and after the drug was washed away allowed the distinction between interference with mitochondrial metabolism and general cytotoxicity. If the effect of the drug was primarily to affect mitochondrial metabolism it was expected that the mitochondrial pH would quickly return to the non-treated cell level following removal of the drug, providing the drug had no other significant cytotoxic effects. Conversely, if the effect of the drug were not reversed by the washing step, an observed alteration of mitochondrial pH could be interpreted at least partially as a downstream consequence of the general cytotoxicity of the drug. A2780 cells were cultured in 24-well microscopy glass bottom plates in RPMI medium, containing Glutamax with 10% FBS addition. The cells were treated with appropriate 800uM […] or 5uM cisplatin. […] If the drug was not washed away prior to staining, it remained present in the medium through the whole imaging time. Separate fluorescent images in green and deep red spectral channels were acquired. The florescence ratio was quantified by a specifically designed batch ImageJ plugin as described above. Statistical analysis was performed using 1-way ANOVA with Bonferroni-Holm post-hoc analysis.

LT-HSC = assay: mitochondrial pH of hematopoietic stem cells in different culture conditions, measured with 5FA-PIP-Cy5-DA; assay type: cell-based, mice; conditions: LT-HSC cultured with 5 uM DMOG or IL-3 20 ng/mL and IL-6 100ng/mL, compared with basal medium, ST-HSC and MPP
Source text: For LT-HSC cells, three different culture conditions (basal medium, DMOG-induced chemical hypoxia and IL-3, IL-6 - induced differentiation) were examined. The calibration curve for the ratio of 5Fluoro/Cy5 fluorescence was obtained using FCCP and a PBS-5% BSA buffer with MPP cells in a manner analogous to the method described in Example 2 (see Figure 10). Fresh cells, extracted from bone marrow of 8-12 week old male mice were stained on ice for surface cell markers and sorted by FACS, according to the following phenotypes: LT-HSC Lin- cKit+ Sca1+ CD150+ CD34- CD48-; ST-HSC Lin- cKit+ Sca1 + CD150+ CD34+; MPP Lin- cKit+ Sca1 + CD150- CD34+. The cells were cultured in Hematopoietic Stemline II (Sigma) medium with addition of SCF and Flt-3 cytokines. For appropriate experiments, additionally 5 uM DMOG or IL-3 20 ng/mL and IL-6 100ng/mL cytokines were added. […] Separate fluorescent images in green and deep red spectral channels were acquired. The florescence ratio was quantified by a specifically designed batch ImageJ plugin as described above.

[4] = pH dependence of fluorescence at 520 nm of the active probe (pKa study); assay type: physicochemical; conditions: PBS buffer with 5% BSA, estimated
Protocol: The pH dependence for fluorescence at 520 nm of 5FA-PIP-Cy5, the active form of 5FA-PIP-Cy5-DA was measured with 5FA-PIP-Cy5 dissolved in a PBS buffer with 5% BSA. (see Figure 3). From this study the pKa of the active form was estimated to be 6.88. This value is within expectable range for the fluorescein moiety containing electron-donor amide group and is within the physiologically relevant range of 6.5 - 8.5.

A2780 cells [5] = assay: mitochondrial staining with the inactive (caged) form versus the active form; assay type: cell-based; conditions: 2uM, identical conditions
[6] = after the drug was washed away, treated one day with 800uM RAPTA-T or 5uM cisplatin, control cells pH 8.4
[7] = in the presence of the drug, treated one day with 800uM RAPTA-T or 5uM cisplatin, control cells pH 8.4

Compound: N#CC(C#N)=NNc1ccc(OC(F)(F)F)cc1 [FCCP, carbonylcyanide-4-trifluoromethoxyphenylhydrazone]
- 5Fluo-Cy5 ratio [1]: clear measurable decrease
- collapse of the mitochondrial pH gradient [2]: full collapse of the mitochondrial pH gradient

Compound: CC[C@H]1/C=C/C=C/C[C@@H](C)[C@H](O)[C@@](C)(O)C(=O)[C@@H](C)[C@H](O)[C@@H](C)C(=O)[C@@H](C)[C@H](O)[C@@H](C)/C=C/C(=O)O[C@@H]2[C@H](C)[C@H](CC1)O[C@]1(CC[C@H](C)[C@H](C[C@@H](C)O)O1)[C@H]2C [oligomycin]
- mitochondrial pH (A2780 cells [3]; addition of 10µm oligomycin, increase from 8.4): around 8.5

Compound: Cc1ccccc1.[Cl][Ru]([Cl])[PH]12CN3CN(CN(C3)C1)C2 [RAPTA-T]
- mitochondrial pH (A2780 cells [3]; [6]): 8.4
- mitochondrial pH (A2780 cells [3]; [7]): 8.0

Compound: COC(=O)CNC(=O)C(=O)OC [DMOG]
- average mitochondrial pH (LT-HSC): the same level of average mitochondrial pH

Compound: N.N.[Cl][Pt][Cl] [cisplatin]
- mitochondrial pH (A2780 cells [3]; [6]): 8.0
- mitochondrial pH (A2780 cells [3]; [7]): 7.8

Compound: CN1C(=CC=CC=CC2=[N+](CCCCCC(=O)N3CCN(CC(=O)Nc4ccc5c(c4)C(=O)OC54c5ccc(O)cc5Oc5cc(O)ccc54)CC3)c3ccccc3C2(C)C)C(C)(C)c2ccccc21 [5FA-PIP-Cy5]
- pKa of the active form [4]: 6.88
- staining of mitochondria (A2780 cells [5]): absolutely no staining of mitochondria

Compound: CO[C@@H]1C[C@@H](C[C@H]2CC[C@H](C)[C@H]([C@@H](C)C(=O)O)O2)O[C@]2(O[C@](C)([C@H]3CC[C@@](C)([C@@H]4O[C@@H]([C@H]5O[C@@](O)(CO)[C@H](C)C[C@@H]5C)C[C@@H]4C)O3)C[C@H]2C)[C@@H]1C [nigericin]
- 5Fluo-Cy5 ratio [1]: clear measurable decrease
- collapse of the mitochondrial pH gradient [2]: no full gradient collapse
